Molecules are shown by their SMILES.

One data set deals with KRas (Homo sapiens, UniProt P01116). Put plainly: Equilibrium dissociation constant by surface plasmon resonance. It is filed as binding. The settings on record: SPRi, immobilised KRas, 4° C. As for the experimental part: Various concentrations of KRas dissolved in water were manually printed onto bare gold-coated (thickness 47 nm) PlexArray Nanocapture Sensor Chips (Plexera Bioscience, Seattle, Wash., US) at 40% humidity. Each concentration was printed in replicate, and each spot contained 0.2 μL of KRas solution. The chip was incubated in 80% humidity at 4° C. for overnight, and rinsed with 10×PBST for 10 min, 1×PBST for 10 min, and deionized water twice for 10 min. The chip was then blocked with 5% (w/v) non-fat milk in water overnight, and washed with 10×PBST for 10 min, 1×PBST for 10 min, and deionized water twice for 10 min before being dried under a stream of nitrogen prior to use. SPRi measurements
Sequence of KRas (P01116 1-188 isoform P01116-2): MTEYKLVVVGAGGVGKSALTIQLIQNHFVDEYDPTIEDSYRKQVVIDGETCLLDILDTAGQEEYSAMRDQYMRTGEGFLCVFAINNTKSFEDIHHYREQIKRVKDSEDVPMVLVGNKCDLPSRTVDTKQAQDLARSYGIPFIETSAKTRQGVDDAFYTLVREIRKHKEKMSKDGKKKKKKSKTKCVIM
were performed with PlexAray HT (Plexera Bioscience, Seattle, Wash., US). Collimated light (660 nm) passes through the coupling prism, reflects off the SPR-active gold surface, and is received by the CCD camera. Buffers and samples were injected by a non-pulsatile piston pump into the 30 μL flowcell that was mounted on the coupling prim. […] The signal changes after binding and washing (in AU) are recorded as the assay value. Selected protein-grafted regions in the SPR images were analyzed, and the average reflectivity variations of the chosen areas were plotted as a function of time. Real-time binding signals were recorded and analyzed by Data Analysis Module (DAM, Plexera Bioscience, Seattle, Wash., US). […]

Data set [1] concerns H358 non-small cell lung cancer line bearing KRas^G12C oncogenic mutation. Put plainly: Cell proliferation inhibition (MTS), H358. It is filed as cell-based. The settings on record: Homo sapiens, NCI-H358; 72 h incubation, MTS; compounds 1-53, median from experimental results. As for the experimental part: (§1) • Cell line #1: A549. Lung carcinoma cell line bearing KRas^G12S oncogenic mutation • Cell line #2: H358. non-small cell lung cancer line bearing KRas^G12C oncogenic mutation • Cell line #3: PANC-1. epithelioid carcinoma of the pancreas cell line bearing KRas^G12D oncogenic mutation • Cell line #4: RPMI. myeloma cell line bearing KRas^G12A oncogenic mutation
(§2) Cell lines were cultured in DMEM or RPMI-1640 supplemented with FBS 10%. In order to assess the antiproliferative effect of compounds, cells were seeded at a density of 1.8×10^3, 6.2×10^3, 7.8×10^3, 21×10^3 and 2×10^3 cells/cm^2, respectively, in tissue culture microplates and were incubated in humidified atmosphere at 5% CO2. 24 h later, compounds dissolved in DMSO 100% were added for different final concentrations ranging between 0.1 and 50 μM for a final DMSO concentration of 0.5% and the plates were incubated for another 72 h. After incubation, proliferation was quantified using CellTiter 96® Aqueous Non-Radioactive Cell Proliferation Assay-MTS (Promega #G5421) following manufacturer instructions. Amount of 490 nm absorbance is directly proportional to the number of living cells. Absorbance was recorded with a BMG Fluostar Optima Microplate Reader and normalized to control with vehicle.

Another data set has as its system NIH-H358 cell line. The experiment in a line: 3D CellTiter-Glo cell viability assay. It is filed as cell-based. The settings on record: 168 h, 7 days' compound treatment, 0.65% methylcellulose. As for the experimental part:
The protocol to perform 3D CellTiter-Glo™ cell viability assay is as follows:
Day −1: Cell Plating • Adjust cell concentrations to 1×10^5 cells/ml with respective medium. (Cell concentration is adjusted according to data base or density optimization assay). Mix 3.5 mL of cell suspension 6.5 mL of 1% methylcellulose. Mix and wait for bubbles to disperse before pipetting. This step yields 10 ml of cell suspension in 0.65% methylcellulose solution. Add 99.5 μL cell suspensions to 96-well plates according to plate map with final cell density. • Two duplicate plates will be set up. One is for day 0 reading (T0) and the other will be cultured in incubator for reading at the end point. • Incubate the plates overnight in humidified incubator at 37° C. with 5% CO2.
Day 0: T0 plate reading and compound treatment • Take T0 plate, add 0.5 μL culture medium to each well for T0 reading. • Add 100 μl CellTiter-Glo® Reagent to each well. • Mix contents for 2 minutes on an orbital shaker to facilitate cell lysis. • Allow the plate to incubate at room temperature for 10 minutes to stabilize luminescent signal. • Record luminescence using EnVision Multi Label Reader. • Dilute the test articles at the concentration indicated at Test Articles Dilution. Add 0.5 μL of each 200× compound working solutions according to plate inoculation map.
Day 7: Plate reading of 7 days' compound treatment • Add 100 μL CellTiter-Glo® Reagent to each well. • Mix contents for 2 minutes on an orbital shaker to facilitate cell lysis. • Allow the plate to incubate at room temperature for 10 minutes to stabilize luminescent signal. • Record luminescence using EnVision Multi Label Reader.

Data set [2] has as its system A549 lung carcinoma cell line bearing KRas^G12S oncogenic mutation. The experiment in a line: Cell proliferation inhibition (MTS), A549. The class given is cell-based. The settings on record: Homo sapiens, 72 h incubation, MTS, compounds 1-53, median from experimental results. As to the method: as §1, §2
Data set [3] deals with PANC-1 epithelioid carcinoma of the pancreas cell line bearing KRas^G12D oncogenic mutation. The experiment in a line: Cell proliferation inhibition (MTS), PANC-1. The settings on record: Homo sapiens, 72 h incubation, MTS, compounds 1-53, median from experimental results. The class given is cell-based. As to the method:
as §1, §2

The subject of data set [4] is RPMI-8226 myeloma cell line bearing KRas^G12A oncogenic mutation. The experiment in a line: Cell proliferation inhibition (MTS), RPMI-8226. It is filed as cell-based. The settings on record: Homo sapiens, 72 h incubation, MTS, compounds 1-53, median from experimental results. As to the method: as §1, §2
For data set [5], the system named is NCI-H358 human lung cancer xenograft. Put plainly: Subcutaneous NCI-H358 human lung cancer xenograft model in NOD/SCID mice. It is filed as in vivo. The settings on record: for Tolerability / safety in tumor bearing mice: 10 mg/kg b.i.d. i.p.; for Anti-tumor effect compared with vehicle group: group-2 p=0.026, group-3 p=0.019. From the text: Evaluation of the Efficacy of compound 18 in the Treatment of Subcutaneous NCI-H358 Human Lung Cancer Xenograft Model in NOD/SCID Mice
The treatments were started when the mean tumor size reached 141 mm^3. The test article administration and the animal numbers in each study group are shown in the following experimental design table.
Tumor growth inhibition (TGI): TGI (%) is an indication of antitumor effectiveness, and expressed as: TGI (%)=100×(1−T/C). T and C were the mean tumor volume of the treated and control groups, respectively, on a given day.

Compound `COc1cc2c(cc1OCCc1cccc(O)c1)C(c1ccc(C)cc1C)N(C(=O)NCc1cocn1)CC2` (centres unmarked) [Compound 18, 1-(2,4-dimethylphenyl)-7-(3-hydroxyphenethoxy)-6-methoxy-N-(oxazol-4-ylmethyl)-3,4-dihydroisoquinoline-2(1H)-carboxamide] came in with a Kd at KRas of 8.8 nM. Also, the koff on KRas (read-out: Kd (dissociation rate constant)) turned out to be 0.00103 s⁻¹. The IC50 worked out at 1660 nM in data set [1]; 370 nM in the data set with NIH-H358 cell line; 1970 nM in data set [2]; 1590 nM in data set [3]; 1210 nM in data set [4]. Also, the “Tolerability / safety in tumor bearing mice” value was “tolerate” in data set [5] and “safe” in data set [5] (listed as compound 18). Also, the Mean tumor volume in data set [5] (PG-D22 (Day 22 after first dosing), i.p., Compound 18 10 mg/kg Bid x 22 day, cisplatin 3.5 mg/kg BIW x 3.5 week, vehicle 630 mm^3) came to 238 mm^3. The “Tumor growth inhibition (TGI)” value in data set [5] (PG-D22, TGI=100x(1-T/C), i.p., Compound 18 10 mg/kg Bid, cisplatin 3.5 mg/kg BIW) is “about 62%”. In addition, the “Anti-tumor effect compared with vehicle group” value in data set [5] (PG-D22) is reported as “significant anti-tumor effects”; in data set [5] (PG-D22, listed as compound 18) it was “significant anti-tumor activities”. The “Number of mice (of 6) whose body weight loss (BWL) reached 10%” value in data set [5] (tumor bearing mice, i.p., compound 18 10 mg/kg Bid, cisplatin 3.5 mg/kg BIW) was “one”.

For the origin of these results see patent US11466012B2, “Tetrahydroisoquinoline compounds” (ALLINKY BIOPHARMA, priority 2018, dated 2022).
